Four molecules from patent US10086028B2, “Method for treating vascular inflammation, improving skin beauty and improving male sexual function using ginseng berry” (AMOREPACIFIC CORPORATION, priority 2007, dated 2018) can be followed below.

In experiment [1] the test system is melanocytes (MeI-Ab cells). Put plainly: Inhibition of melanin generation in mouse melanocytes. Format: cell-based, C57BL/6 mouse. The settings on record: added for 3 consecutive days; sample 10 μg/mL. As for the experimental part: Inhibition of melanin generation in mouse melanocytes was evaluated in order to confirm the effect of the ginseng berry extract of Example 1 of inhibiting melanin generation.
First, melanocytes (MeI-Ab cells) derived from C57BL/6 mouse [Dooley, T. P. et al, Skin Pharmacol., 7, pp. 188-200] were cultured in Dulbecco's modified Eagle's medium (DMEM) containing 10% FBS, 100 nM 2-O-tetradecanoylphorbol-13-acetate and 1 nM cholera toxin under the condition of 37° C., 5% CO2. The cultured MeI-Ab cells were separated using 0.25% trypsin-EDTA, and cultured on a 24-well plate to a concentration of 10^5 cells/well. Starting from day 2, the ginseng berry extract of Example 1 (1 μg/mL, 10 μg/mL and 100 μg/mL), the ginseng berry saponin concentrate of Example 2 (10 μg/mL), the ginseng root extract of Comparative Example 1 (10 μg/mL) or ginsenosides Rg1, Rg2, Rh1 or Re (10 μg/mL) was added for 3 consecutive days. Hydroquinone (10 μg/mL) was used as a positive control substance. Then, after removing the medium and washing with PBS, the cells were dissolved with 1 N sodium hydroxide. Absorbance was measured at 400 nm, and melanin generation inhibition ratio was calculated by Equation 3.

The test system of experiment [2] is endothelial cells (HUVEC). Briefly: Increase of NO generation in endothelial cells (Test Example 12). Format: cell-based. As for the experimental part: Endothelial cells were adhered on a gelatin-coated 24-well plate, with a density of 2.5×10^4 cells/well. The cells were cultured for 12 hours using a growth medium. The endothelial cells were pre-treated for 12 hours, using the ginseng berry extract, the ginseng berry saponin concentrate or the ginseng root extract (Examples 1-2 and Comparative Example 1). Then, they, including a non-treated group, were treated with 10 μmol/L DAF-FM diacetate (Molecular Probe, Oreg.) at 37° C. for 30 minutes in an FBS-free M199 medium. Subsequently, the endothelial cells were washed 3 times with an FBS-free M199 medium, put in a parallel plate flow chamber, and stimulated with light isolated from a mercury lamp. Excitation wavelength was 488 nm. Fluorescence of 515 nm is emitted when DAF binds with NO.
Increase of generation of NO, which is known as an important signal transduction substance related with penile erection, in endothelial cells was observed after treating with the ginseng berry extract. Experiment was carried out in a manner substantially the same as that of Test Example 2, but L-arginine was treated together with the ginseng root extract of Comparative Example 1 and the ginseng berry extract of Example 1. […]

The subject of experiment [3] is human HaCaT keratinocytes. Put plainly: Antioxidative effect: removal of UV-generated ROS in HaCaT keratinocytes. Format: cell-based. To be noted: ROS generated by UV in HaCaT; sample 10 μg/mL (Trolox given as (10)). The text has this: Antioxidative effect of the ginseng berry extract was investigated by comparing the ability of removing reactive oxygen species (ROS) generated in human HaCaT keratinocytes by ultraviolet (UV) radiation.

The test system of the next experiment is type I procollagen. Put plainly: Type I procollagen assay in human fibroblasts (ELISA). Format: cell-based. The settings on record: 3rd day, 10 ng/mL. The protocol: Human fibroblasts were cultured on a 12-well plate incubator to a concentration of 10^5 cells/well. Then, the medium was replaced by one including the ginseng berry extract of Example 1 (1 μg/mL and 10 μg/mL), the ginseng berry saponin concentrate of Example 2 (10 μg/mL), the ginseng root extract of Comparative Example 1 (10 μg/mL) or ginsenosides Rg1, Rg2, Rh1 or Re (10 μg/mL). 10 ng/mL transforming growth factor β (TGF-β) was used as a positive control substance.
On the 3rd day of culturing, the cells were harvested and the quantity of produced type I procollagen was analyzed using ELISA. The result was calculated as a relative value with respect to the negative control group, which was not treated with a test substance.

In experiment [4] the test system is matrix metalloproteinase I (MMP-1). Briefly: Inhibition of UVB-induced MMP-1 expression in human fibroblasts (ELISA). The experiment is classed as cell-based. The settings on record: UVB 40 mJ/cm^2, 2nd day, relative to UV control; 10 ng/mL. The protocol: Human fibroblasts were cultured on a 12-well plate incubator to a concentration of 10^5 cells/well. Then, after irradiating UVB at 40 mJ/cm^2, the medium was replaced by one including the ginseng berry extract of Example 1 (1 μg/mL and 10 μg/mL), the ginseng berry saponin concentrate of Example 2 (10 μg/mL), the ginseng root extract of Comparative Example 1 (10 μg/mL) or ginsenosides Rg1, Rg2, Rh1 or Re (10 μg/mL). 10 ng/mL TGF-β was used as a positive control substance. On the 2nd day of culturing, the cells were harvested and the quantity of produced matrix metalloproteinase I (MMP-1) was analyzed using ELISA. The result was calculated as a relative value with respect to the control group, which was irradiated with UV without treating with a test substance.

Take `Oc1ccc(O)cc1` [Hydroquinone]: in experiment [1], the “Melanin generation inhibition ratio (%)” value was found to be 39%.

Turning to `N=C(N)NCCC[C@H](N)C(=O)O` [L-Arginine], the results for the “increased NO generation with respect to the negative control group” value in experiment [2] (250 μM) and in experiment [2] (500 μM) were “about 2.7 times” and about 5.5 times, respectively.

As to `Cc1c(C)c2c(c(C)c1O)CCC(C)(C(=O)O)O2` (stereo not drawn) [Trolox], in experiment [3], the “Antioxidative effect (%)” value turned out to be 33%.

As to transforming growth factor β [TGF-β], the “Procollagen activity relative to negative control (%)” value in the experiment on type I procollagen is listed as 145%. Further, the “MMP-1 expression (%)” value in experiment [4] amounted to 65%.
